According to patent US20250282799A1, “SUBSTITUTED PYRIDO[4,3-d]PYRIMIDINES AS KRAS MODULATORS” (Alterome Therapeutics, Inc., priority 2023, published 2025):

What follows are molecules tested on KRAS G12V dependent lung adenocarcinoma cell line, NCI-H441 (assay: Cellular pERK (Thr202/Tyr204) FRET/HTRF assay). Details: Homo sapiens, NCI-H441, cellular pERK (Thr202/Tyr204) HTRF, NCI-H441 cells.
Type: cell-based
How it was run: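 NCI-H441 cells (KRAS G12V) plated overnight at 37 °C, then exposed to compounds for 1 hr at 37 °C, 5% CO2; DMSO as negative control. Lysates read by Eu-cryptate/d2 sandwich FRET (665 nm) for ERK1/2 phosphorylated at Thr202/Tyr204; IC50 from curve fit.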

| SMILES | IC50 [µM] |
| --- | --- |
| [2H]C([2H])(Oc1nc(N2CCOC[C@H]3[C@H](F)[C@H]32)c2cc(Cl)c(-c3ccc(F)c4sc(N)c(C#N)c34)c(F)c2n1)[C@@]12CCCN1C[C@H](F)C2 (atropisomer, axis not shown; (aS)) [Example 352, 2-amino-4-((S)-6-chloro-8-fluoro-4-((1S,7S,8S)-8-fluoro-5-oxa-2-azabicyclo[5.1.0]octan-2-yl)-2-(((2R,7aS)-2-fluorotetrahydro-1H-pyrrolizin-7a(5H)-yl)methoxy-d2)quinazolin-7-yl)-7-fluorobenzo[b]thiophene-3-carbonitrile] | 0.5 to 10 |
| [2H]C([2H])(F)Oc1c(F)ccc2cc(N)cc(-c3ncc4c(N5CCOC[C@H]6[C@H](F)[C@H]65)nc(OC[C@@]56CCCN5CC5(CC5)C6)nc4c3F)c12 [Example 200, 4-(2-(((S)-dihydro-1′H,3′H-spiro[cyclopropane-1,2′-pyrrolizin]-7a′(5′H)-yl)methoxy)-8-fluoro-4-((1S,7S,8S)-8-fluoro-5-oxa-2-azabicyclo[5.1.0]octan-2-yl)pyrido[4,3-d]pyrimidin-7-yl)-6-fluoro-5-(fluoromethoxy-d2)naphthalen-2-amine] | < 0.05 |
| C#Cc1c(F)ccc2cc(N)cc(-c3ncc4c(N5CCOC[C@H]6[C@H](F)[C@H]65)nc(OC[C@@]56CCCN5[C@@H](C)[C@H](F)C6)nc4c3F)c12 [Example 278, 5-ethynyl-6-fluoro-4-(8-fluoro-2-(((2R,3S,7aS)-2-fluoro-3-methyltetrahydro-1H-pyrrolizin-7a(5H)-yl)methoxy)-4-((1S,7S,8S)-8-fluoro-5-oxa-2-azabicyclo[5.1.0]octan-2-yl)pyrido[4,3-d]pyrimidin-7-yl)naphthalen-2-amine] | < 0.05 |
| [2H]C([2H])(Oc1nc(N2CCOC[C@H]3[C@H](F)[C@H]32)c2cnc(-c3cc(N)cc4ccc(C)c(C#C)c34)c(F)c2n1)[C@@]12CCCN1[C@H](C)[C@H](F)C2 [Example 410, 5-ethynyl-4-(8-fluoro-2-(((2R,3R,7aS)-2-fluoro-3-methyltetrahydro-1H-pyrrolizin-7a(5H)-yl)methoxy-d2)-4-((1S,7S,8S)-8-fluoro-5-oxa-2-azabicyclo[5.1.0]octan-2-yl)pyrido[4,3-d]pyrimidin-7-yl)-6-methylnaphthalen-2-amine] | < 0.05 |
| C#Cc1c(F)ccc2cc(N)cc(-c3ncc4c(N5CCOC[C@H]6[C@H](F)[C@H]65)nc(OC[C@]56C[C@@]7(C[C@H]7F)CN5CCC65CC5)nc4c3F)c12 (single isomer, unassigned) [Example 233] | < 0.05 |
| [2H]C([2H])(F)Oc1c(F)ccc2cccc(-c3ncc4c(N5CCOC[C@H]6[C@H](F)[C@H]65)nc(OC[C@]56C/C(=C/F)CN5CCC65CC5)nc4c3F)c12 [Example 386, (1S,7S,8S)-8-fluoro-2-(8-fluoro-7-(7-fluoro-8-(fluoromethoxy-d2)naphthalen-1-yl)-2-(((R,Z)-6′-(fluoromethylene)tetrahydrospiro[cyclopropane-1,1′-pyrrolizin]-7a′(5′H)-yl)methoxy)pyrido[4,3-d]pyrimidin-4-yl)-5-oxa-2-azabicyclo[5.1.0]octane] | < 0.05 |
| [2H]C([2H])(Oc1nc(N2CCOC[C@H]3[C@H](F)[C@H]32)c2cnc(-c3cc(N)cc4ccc(F)c(C#C)c34)c(F)c2n1)[C@@]12CCCN1C[C@H](Cl)C2 (single isomer, unassigned) [Example 238] | < 0.05 |
| [2H]C([2H])(Oc1nc(N2CCOC[C@H]3[C@H](F)[C@H]32)c2cc(F)c(-c3cc(N)c(F)c(C)c3C(F)(F)F)c(F)c2n1)[C@@]12CCCN1C[C@H](F)C2 [Example 177, 5-(6,8-difluoro-4-((1S,7S,8S)-8-fluoro-5-oxa-2-azabicyclo[5.1.0]octan-2-yl)-2-(((2R,7aS)-2-fluorotetrahydro-1H-pyrrolizin-7a(5H)-yl)methoxy-d2)quinazolin-7-yl)-2-fluoro-3-methyl-4-(trifluoromethyl)aniline] | < 0.05 |
| C#Cc1c(Cl)ccc2cc(N)cc(-c3ncc4c(N5CCOC[C@H]6[C@H](Cl)[C@H]65)nc(OC[C@@H]5CCCN5C)nc4c3F)c12 [Example 321, 6-chloro-4-(4-((1S,7S,8S)-8-chloro-5-oxa-2-azabicyclo[5.1.0]octan-2-yl)-8-fluoro-2-(((S)-1-methylpyrrolidin-2-yl)methoxy)pyrido[4,3-d]pyrimidin-7-yl)-5-ethynylnaphthalen-2-amine] | < 0.05 |
| [2H]C1([2H])CC[C@@]2(C([2H])([2H])Oc3nc(N4CCOC[C@H]5[C@H](F)[C@H]54)c4cnc(-c5cc(N)cc6ccc(F)c(C#C)c56)c(F)c4n3)C[C@@]3(C[C@H]3F)CN12 (single isomer, unassigned) [Example 274] | < 0.05 |
| [2H]C([2H])([2H])Oc1c(F)cc(F)c2cc(N)cc(-c3ncc4c(N5CCC=C[C@H]6[C@H](F)[C@H]65)nc(OC([2H])([2H])[C@@]56CCCN5C[C@H](F)C6)nc4c3F)c12 [Example 149, 6,8-difluoro-4-(8-fluoro-4-((1S,7R,8S)-8-fluoro-2-azabicyclo[5.1.0]oct-5-en-2-yl)-2-(((2R,7aS)-2-fluorotetrahydro-1H-pyrrolizin-7a(5H)-yl)methoxy-d2)pyrido[4,3-d]pyrimidin-7-yl)-5-(methoxy-d3)naphthalen-2-amine] | < 0.05 |
| [2H]C([2H])(Oc1nc(N2CCOC[C@@H]3C(F)[C@@H]32)c2cc(F)c(-c3cc(N)cc(C)c3C(F)(F)F)c(F)c2n1)[C@@]12CCCN1C[C@H](F)C2 (stereo in doubt) [Example 170, 3-(6,8-difluoro-4-((1R,7R,8R)-8-fluoro-5-oxa-2-azabicyclo[5.1.0]octan-2-yl)-2-(((2R,7aS)-2-fluorotetrahydro-1H-pyrrolizin-7a(5H)-yl)methoxy-d2)quinazolin-7-yl)-5-methyl-4-(trifluoromethyl)aniline] | 0.5 to 10 |
| C#Cc1c(F)ccc2cccc(-c3ncc4c(N5CCOC[C@H]6[C@H](F)[C@H]65)nc(OC[C@]56C[C@@H](F)CN5C[C@@H](CNC(C)=O)C6)nc4c3F)c12 [Example 245, N-(((2R,6R,7aS)-7a-(((7-(8-ethynyl-7-fluoronaphthalen-1-yl)-8-fluoro-4-((1S,7S,8S)-8-fluoro-5-oxa-2-azabicyclo[5.1.0]octan-2-yl)pyrido[4,3-d]pyrimidin-2-yl)oxy)methyl)-6-fluorohexahydro-1H-pyrrolizin-2-yl)methyl)acetamide] | 0.05 to 0.5 |
| [2H]C([2H])(Oc1nc(N2CCOC[C@H]3[C@H](F)[C@H]32)c2cnc(-c3cncc4ccc(F)c(Cl)c34)c(F)c2n1)[C@@]12CCCN1C[C@H](F)C2 [Example 113, (1S,7S,8S)-2-(7-(5-chloro-6-fluoroisoquinolin-4-yl)-8-fluoro-2-(((2R,7aS)-2-fluorotetrahydro-1H-pyrrolizin-7a(5H)-yl)methoxy-d2)pyrido[4,3-d]pyrimidin-4-yl)-8-fluoro-5-oxa-2-azabicyclo[5.1.0]octane] | 0.5 to 10 |

Same assay, conditions: Homo sapiens, NCI-H441, cellular pERK HTRF, NCI-H441 (KRAS G12V) cells

| SMILES | IC50 [µM] |
| --- | --- |
| [2H]C([2H])(Oc1nc(N2CCCC[C@H]3[C@H](F)[C@H]32)c2cnc(-c3cc(N)cc4ccc(F)c(C#C)c34)c(C)c2n1)[C@]12CC(=C)CN1CCC21CC1 [Example 458, 5-Ethynyl-6-fluoro-4-(4-((1S,7R,8S)-8-fluoro-2-azabicyclo[5.1.0]octan-2-yl)-8-methyl-2-(((R)-6′-methylenetetrahydrospiro[cyclopropane-1,1′-pyrrolizin]-7a′(5′H)-yl)methoxy-d2)pyrido[4,3-d]pyrimidin-7-yl)naphthalen-2-amine] | < 0.05 |

Same assay, conditions: Homo sapiens, NCI-H441, pERK HTRF, NCI-H441 cells (KRAS G12V)

| SMILES | IC50 [µM] |
| --- | --- |
| [2H]C([2H])(Oc1nc(N2CCCO[C@H]3C[C@H]32)c2cnc(-c3ccc(F)c4sc(N)c(C#N)c34)c(F)c2n1)[C@@]12CCCN1C[C@H](F)C2 [Example 39, 4-(4-((1S,7R)-2-Oxa-6-azabicyclo[5.1.0]octan-6-yl)-8-fluoro-2-(((2R,7aS)-2-fluorotetrahydro-1H-pyrrolizin-7a(5H)-yl)methoxy-d2)pyrido[4,3-d]pyrimidin-7-yl)-2-amino-7-fluorobenzo[b]thiophene-3-carbonitrile] | 0.05 to 0.5 |

Same assay, conditions: cellular pERK (Thr202/Tyr204) HTRF, NCI-H441 cells

| SMILES | IC50 [µM] |
| --- | --- |
| [2H]C([2H])(Oc1nc(N2CCOC[C@H]3[C@H](F)[C@H]32)c2cc(Cl)c(-c3cc(N)cc4ccc(F)c(C#C)c34)c(F)c2n1)[C@@]12CCCN1C[C@H](F)C2 (atropisomer, axis not shown; (aS)) [Example 359, 4-((R)-6-chloro-8-fluoro-4-((1S,7S,8S)-8-fluoro-5-oxa-2-azabicyclo[5.1.0]octan-2-yl)-2-(((2R,7aS)-2-fluorotetrahydro-1H-pyrrolizin-7a(5H)-yl)methoxy-d2)quinazolin-7-yl)-5-ethynyl-6-fluoronaphthalen-2-amine] | < 0.05 |
| [2H]C([2H])(Oc1nc(N2CCOC[C@H]3[C@H](F)[C@H]32)c2cc(C#N)c(-c3ccc(F)c4sc(N)c(C#N)c34)c(F)c2n1)[C@@]12CCCN1C[C@H](F)C2 (atropisomer, axis not shown; (aS)) [Example 351, (R)-7-(2-amino-3-cyano-7-fluorobenzo[b]thiophen-4-yl)-8-fluoro-4-((1S,7S,8S)-8-fluoro-5-oxa-2-azabicyclo[5.1.0]octan-2-yl)-2-(((2R,7aS)-2-fluorotetrahydro-1H-pyrrolizin-7a(5H)-yl)methoxy-d2)quinazoline-6-carbonitrile] | 0.5 to 10 |

Same assay, conditions: cellular pERK HTRF, NCI-H441 (KRAS G12V) cells

| SMILES | IC50 [µM] |
| --- | --- |
| [2H]C([2H])(Oc1nc(N2CCOC[C@H]3[C@H](F)[C@H]32)c2cc(F)c(-c3cc(N)cc4ccc(F)c(C#C)c34)c(C)c2n1)[C@@]12CCCN1C[C@H](F)C2 (atropisomer, axis not shown; (aS)) [Example 435, 5-ethynyl-6-fluoro-4-((S)-6-fluoro-4-((1S,7S,8S)-8-fluoro-5-oxa-2-azabicyclo[5.1.0]octan-2-yl)-2-(((2R,7aS)-2-fluorotetrahydro-1H-pyrrolizin-7a(5H)-yl)methoxy-d2)-8-methylquinazolin-7-yl)naphthalen-2-amine] | < 0.05 |
